{"source": "patent US10738028B2", "about": "“Spiro three-membered ring, spiro five-membered ring peptide deformylase inhibitor and use thereof in antibacteria and anti-tumor” (priority 2016, dated 2020)", "type_in_all_cases": "cell-based", "key": {"[1]": {"test_system": "Enterococcus faecium (EFM)", "assay": "MIC, two-fold agar dilution (CLSI), clinical isolates", "text": "(§1) 1. The invention adopts the two-fold agar dilution method recommended by the operating procedure of antimicrobial susceptibility testing set by American Clinical and Laboratory Standards Institute (CLSI) to determine the Minimum Inhibitory Concentration (MIC) of the test samples against the tested strains."}, "[2]": {"test_system": "methicillin-resistant Staphylococcus epidermidis (MRSE)", "assay": "MIC, two-fold agar dilution (CLSI), clinical isolates", "text": "as §1"}, "[3]": {"test_system": "Escherichia coli (including ESBLs, non-ESBLs)", "assay": "MIC, two-fold agar dilution (CLSI), clinical isolates", "text": "as §1"}, "[4]": {"test_system": "methicillin-sensitive Staphylococcus aureus (MSSA)", "assay": "MIC, two-fold agar dilution (CLSI), clinical isolates", "text": "as §1"}, "[5]": {"test_system": "methicillin-resistant Staphylococcus aureus (MRSA)", "assay": "MIC, two-fold agar dilution (CLSI), clinical isolates", "text": "as §1"}, "[6]": {"test_system": "Streptococcus pneoumoniae (SPN)", "assay": "MIC, two-fold agar dilution (CLSI), clinical isolates", "text": "as §1"}, "[7]": {"test_system": "methicillin-sensitive Staphylococcus epidermidis (MSSE)", "assay": "MIC, two-fold agar dilution (CLSI), clinical isolates", "text": "as §1"}, "[8]": {"test_system": "Enterococcus faecalis (EFA)", "assay": "MIC, two-fold agar dilution (CLSI), clinical isolates", "text": "as §1"}, "[9]": {"test_system": "Moraxella catarrhalis (BCA)", "assay": "MIC, two-fold agar dilution (CLSI), clinical isolates", "text": "as §1"}, "[10]": {"test_system": "HCT-116 colorectal cancer cell line", "assay": "CCK-8 proliferation inhibition", "settings": "Homo sapiens, HCT-116, 72 h, concentration of 30 μM; 72 hours; CCK-8; read-out: HCT116 inhibition rate/%", "method_in_brief": "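2000 cells/well, McCoy's 5A + 10% newborn bovine serum; overnight attach, 37° C./5% CO2. Cpd from DMSO stock diluted in medium, 72 h. Readout: CCK-8 (1:10). Ctrl 1‰ DMSO.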"}}, "data": [{"smiles": "CCCC[C@H](CN(O)C=O)C(=O)N1CC2(CC2)C[C@H]1C(=O)Nc1cc(C)on1", "note": "[Example 21, (S)-5-((R)-2-((N-hydroxyformamido)methyl)hexanoyl)-N-(5-methylisoxazol-3yl)-5-spiro[2.4]heptane-6-carboxamide]", "values": [{"measurement": "MIC (anti-bacterial activity)", "setting": "[1]; strain EFM 15-1", "value": 0.5, "unit": "µg/mL"}, {"measurement": "MIC (anti-bacterial activity)", "setting": "[1]; strain EFM 15-2", "value": 1, "unit": "µg/mL"}, {"measurement": "MIC (anti-bacterial activity)", "setting": "[1]; strain EFM 15-3", "value": 0.5, "unit": "µg/mL"}, {"measurement": "MIC (anti-bacterial activity)", "setting": "[1]; strain EFM 15-4", "value": 1, "unit": "µg/mL"}, {"measurement": "MIC (anti-bacterial activity)", "setting": "[1]; strain EFM 15-5", "value": 0.5, "unit": "µg/mL"}, {"measurement": "MIC (anti-bacterial activity)", "setting": "[1]; strain EFM 15-6", "value": 2, "unit": "µg/mL"}, {"measurement": "MIC (anti-bacterial activity)", "setting": "[2]; strain MRSE 15-1", "value": 0.25, "unit": "µg/mL"}, {"measurement": "MIC (anti-bacterial activity)", "setting": "[2]; strain MRSE 15-2", "value": 0.25, "unit": "µg/mL"}, {"measurement": "MIC (anti-bacterial activity)", "setting": "[2]; strain MRSE 15-3", "value": 0.25, "unit": "µg/mL"}, {"measurement": "MIC (anti-bacterial activity)", "setting": "[2]; strain MRSE 15-7", "value": 0.25, "unit": "µg/mL"}, {"measurement": "MIC (anti-bacterial activity)", "setting": "[3]; strain ECO+ 15-1", "value": 32, "unit": "µg/mL"}, {"measurement": "MIC (anti-bacterial activity)", "setting": "[3]; strain ECO+ 15-2", "value": 32, "unit": "µg/mL"}, {"measurement": "MIC (anti-bacterial activity)", "setting": "[3]; strain ECO+ 15-3", "value": 64, "unit": "µg/mL"}, {"measurement": "MIC (anti-bacterial activity)", "setting": "[3]; strain ECO+ 15-4", "value": 64, "unit": "µg/mL"}, {"measurement": "MIC (anti-bacterial activity)", "setting": "[3]; strain ECO− 15-1", "value": 64, "unit": "µg/mL"}, {"measurement": "MIC (anti-bacterial activity)", "setting": "[3]; strain ECO− 15-2", "value": 64, "unit": "µg/mL"}, {"measurement": "MIC (anti-bacterial activity)", "setting": "[3]; strain ECO− 15-3", "value": 64, "unit": "µg/mL"}, {"measurement": "MIC (anti-bacterial activity)", "setting": "[3]; strain ECO− 15-4", "value": 64, "unit": "µg/mL"}, {"measurement": "MIC (anti-bacterial activity)", "setting": "[4]; strain MSSA 15-3", "value": 0.5, "unit": "µg/mL"}, {"measurement": "MIC (anti-bacterial activity)", "setting": "[4]; strain MSSA 15-4", "value": 0.25, "unit": "µg/mL"}, {"measurement": "MIC (anti-bacterial activity)", "setting": "[4]; strain MSSA 15-5", "value": 0.25, "unit": "µg/mL"}, {"measurement": "MIC (anti-bacterial activity)", "setting": "[4]; strain MSSA 15-6", "value": 0.5, "unit": "µg/mL"}, {"measurement": "MIC (anti-bacterial activity)", "setting": "[5]; strain MRSA 15-1", "value": 0.25, "unit": "µg/mL"}, {"measurement": "MIC (anti-bacterial activity)", "setting": "[5]; strain MRSA 15-2", "value": 0.5, "unit": "µg/mL"}, {"measurement": "MIC (anti-bacterial activity)", "setting": "[5]; strain MRSA 15-3", "value": 0.5, "unit": "µg/mL"}, {"measurement": "MIC (anti-bacterial activity)", "setting": "[5]; strain MRSA 15-4", "value": 0.5, "unit": "µg/mL"}, {"measurement": "MIC (anti-bacterial activity)", "setting": "[6]; strain SPN 16-2", "value": 4, "unit": "µg/mL"}, {"measurement": "MIC (anti-bacterial activity)", "setting": "[6]; strain SPN 16-4", "value": 0.5, "unit": "µg/mL"}, {"measurement": "MIC (anti-bacterial activity)", "setting": "[7]; strain MSSE 15-3", "value": 0.5, "unit": "µg/mL"}, {"measurement": "MIC (anti-bacterial activity)", "setting": "[7]; strain MSSE 15-4", "value": 0.25, "unit": "µg/mL"}, {"measurement": "MIC (anti-bacterial activity)", "setting": "[7]; strain MSSE 15-5", "value": 0.03, "unit": "µg/mL"}, {"measurement": "MIC (anti-bacterial activity)", "setting": "[7]; strain MSSE 15-6", "value": 0.03, "unit": "µg/mL"}, {"measurement": "MIC (anti-bacterial activity)", "setting": "[8]; strain EFA 15-1", "value": 16, "unit": "µg/mL"}, {"measurement": "MIC (anti-bacterial activity)", "setting": "[8]; strain EFA 15-2", "value": 16, "unit": "µg/mL"}, {"measurement": "MIC (anti-bacterial activity)", "setting": "[8]; strain EFA 15-3", "value": 1, "unit": "µg/mL"}, {"measurement": "MIC (anti-bacterial activity)", "setting": "[8]; strain EFA 15-4", "value": 16, "unit": "µg/mL"}, {"measurement": "MIC (anti-bacterial activity)", "setting": "[8]; strain EFA 15-5", "value": 16, "unit": "µg/mL"}, {"measurement": "MIC (anti-bacterial activity)", "setting": "[8]; strain EFA 15-6", "value": 4, "unit": "µg/mL"}, {"measurement": "MIC (anti-bacterial activity)", "setting": "[8]; strain EFA 15-9", "value": 4, "unit": "µg/mL"}, {"measurement": "MIC (anti-bacterial activity)", "setting": "[9]; strain BCA 14-1", "value": 0.5, "unit": "µg/mL"}, {"measurement": "MIC (anti-bacterial activity)", "setting": "[9]; strain BCA 14-4", "value": 0.5, "unit": "µg/mL"}, {"measurement": "MIC (anti-bacterial activity)", "setting": "[9]; strain BCA 14-5", "value": 0.5, "unit": "µg/mL"}, {"measurement": "MIC (anti-bacterial activity)", "setting": "[9]; strain BCA 14-6", "value": 0.5, "unit": "µg/mL"}, {"measurement": "MIC (anti-bacterial activity)", "setting": "[9]; strain BCA 14-7", "value": 0.5, "unit": "µg/mL"}, {"measurement": "MIC (anti-bacterial activity)", "setting": "[9]; strain BCA 14-8", "value": 0.5, "unit": "µg/mL"}, {"measurement": "MIC (anti-bacterial activity)", "setting": "[9]; strain BCA 14-10", "value": 0.5, "unit": "µg/mL"}, {"measurement": "inhibition at 30 µM", "setting": "[10]", "value": 8, "unit": "%"}]}]}
